Data as given in patent US7524851B2 (Robert Bosch Gesellschaft fur Medizinische Forschung (RBMF), priority 2003, dated 2009).

Columns and labels:
Assay type in all cases: cell-based, human
CD45RA T cells = experiment: Annexin V/propidium iodide FACS apoptosis of stimulated CD45RA T cells; settings: rIL-2, anti-CD3 plus anti-CD28; after 5 days
Text: Isolation of primary CD4^+ T lymphocytes and lamina propria cells: Human peripheral blood mononuclear cells (PBMCs) from healthy volunteers (25-42 years of age) and patients with Crohn's disease (31-65 years of age) were isolated using Ficoll-Hypaque gradients. PBMCs were further purified using CD4 monoclonal antibodies attached to immunomagnetic beads according to the manufacturer's protocol, followed by treatment with Detachabead (Dynal; Oslo, Norway). In some cases, CD4^+ T cells were further separated by negative selection techniques using CD45RO or CD45RA monoclonal antibodies (PharMingen; Heidelberg, Germany) and immunomagnetic beads (Dynal). […]
For FACS analysis, apoptotic cells were detected by staining with annexin V and propidium iodide using the Annexin V FITC Apoptosis Detection Kit I (PharMingen) (Atreya et al., Nat. Med. 6:583-588 (2000)). […] To verify the results obtained with the annexin V/propidium iodide staining, analysis of T cells displaying DNA fragmentation was also determined by the Nicoletti technique, as described in (Nicoletti et al., J. Immunol. Methods 139:271-279 (1991)). […] Finally, cells were analyzed on a FACScan flow cytometer. […]

vav = vav protein expression (Western blot, immunocytochemistry)
Protocol: Western blots: Equal amounts of extract (30 μg) were added to 8 μl of electrophoresis sample buffer (Firma Roth; Karlsruhe, Germany). After boiling, the extracts were loaded on 15% SDS-PAGE gels and electrophoretically separated. Proteins were transferred to nitrocellulose membranes, and detection was performed with the ECL Western blotting analysis system (Amersham). […]
Immunocytochemical analysis: Immunocytochemistry was performed as described in Atreya et al., supra and Finotto et al., J. Exp. Med. 193:1247-1260 (2001)). […] Cells were rinsed with PBS, and nuclei were counterstained with Hoechst33342 blue for fluorescence (Molecular Probes; Burlingame, Calif., USA). Finally, cells were washed in PBS and analyzed with an Olympus Microscope. Six to ten high-power fields were finally analyzed in all patients per condition, and selected high-power fields were further analyzed by confocal laser microscopy.

Rac1 = Rac1 activation assay (GTP-bound Rac1, PAK pull-down); settings: primary T cells, 3 days
Protocol: Cell lysates were incubated with 10 μg/ml PAK-1 agarose (Rac assays) or 10 μg/mg Raf RBD agarose (Ras assay) for 60 minutes (Rac assays) or 30 minutes (Ras assays) at 4° C. Agarose beads were collected by centrifugation followed by denaturation, boiling of the samples, and SDS-PAGE analysis.

SMILES: Sc1ncnc2nc[nH]c12 [6-MP, 6-mercaptopurine]
- induction of annexin V-positive, propidium iodide-negative naive CD45RA T cells (CD45RA T cells): significant induction
- expression of the guanosine exchange factor vav (vav): induced
- CD28 costimulation induced Rac1 activation (GTP-bound Rac1) (Rac1): strongly suppressed

SMILES: Cn1cnc([N+](=O)[O-])c1Sc1ncnc2nc[nH]c12 [azathioprine, Azathioprine]
- induction of annexin V-positive, propidium iodide-negative naive CD45RA T cells (CD45RA T cells): significant induction
- expression of the guanosine exchange factor vav (vav): induced
- CD28 costimulation induced Rac1 activation (GTP-bound Rac1) (Rac1): strongly suppressed
